Laboratory results: patent US11286242B2 (priority 2018, dated 2022)

Legend:
Phakopsora pachyrhizi = Phakopsora pachyrhizi test in soybean, preventive spray; type: in vivo; details: preventive spray on soybean plants, inoculated one day after treatment, greenhouse 25° C., 90% relative humidity, read-out: control (efficacy, disease severity rating) compared to the untreated check
Procedure, shortened: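 Greenhouse soybean plants were sprayed preventively at the stated rates, with compound in 2% DMSO/acetone diluted in water. They were inoculated one day later with a 2.1×10^6 P. pachyrhizi spore suspension and held at 25° C and 90% RH. Severity (0–100%) was rated 3, 7, 10 and 15 days after application, giving % control versus untreated plants.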

Colletotrichum capsici = Colletotrichum capsici (anthracnose) radial mycelial growth on Potato Dextrose Agar; type: cell-based; details: Colletotrichum truncatum, 168 h, 25° C., 60% relative humidity, seven days, read-out: control compared to the untreated check
Experimental: Example 5: Colletotrichum capsici (Anthracnose)
(§1) Compounds were dissolved in 0.3% DMSO & then added to Potato Dextrose Agar medium just prior to dispensing it into petri dishes. 5 mL medium with compound in the desired concentration was dispensed into 60 mm sterile petri-plates. After solidification, each plate was seeded with 5 mm size mycelial disc taken form periphery of actively growing virulent culture plate. Plates were incubated in growth chambers at 25° C. temperature and 60% relative humidity for seven days and radial growth was measured.

Pyricularia oryzae = experiment: microbe, parasite or virus in culture; type: cell-based; details: 168 h, read-out: control compared to the untreated check
Septoria lycopersici = Septoria lycopersici (leaf spot of tomato) radial mycelial growth on Potato Dextrose Agar; type: cell-based; details: 300 ppm, 25° C., 70% relative humidity, seven days
Experimental: Example 6: Septoria lycopersici (Leaf Spot of Tomato)
as §1, with “70%” for “60%”

Botrytis cinerea = Botrytis cinerea (gray mold) radial mycelial growth on Potato Dextrose Agar; type: cell-based; details: 168 h, 22° C., 90% relative humidity, seven days, read-out: control compared to the untreated check
Experimental: Example 3: Botrytis cinerea (Gray Mold)
as §1, with “22°” for “25°”, “90%” for “60%”

Alternaria solani = Alternaria solani (early blight of tomato/potato) radial mycelial growth on Potato Dextrose Agar; type: cell-based; details: 168 h, Potato Dextrose Agar, 25° C., 60% relative humidity, seven days, read-out: control compared to the untreated check
Experimental: Example 4: Alternaria solani (Early Blight of Tomato/Potato)
as §1, with “solidification” for “solidification,”

CS(=O)(=NCc1ccc(-c2noc(C(F)(F)F)n2)cc1)c1ccc(Br)cc1 (centres unmarked) [Compound 22, (4-bromophenyl)(methyl)((4-(5-(trifluoromethyl)-1,2,4-oxadiazol-3-yl)benzyl)imino)-λ^6-sulfanone]
pest or weed control at 500 ppm (Phakopsora pachyrhizi): > 90%
inhibition of growth at 300 ppm (Colletotrichum capsici): > 70%
inhibition of growth at 300 ppm (Pyricularia oryzae): > 70%

O=S1(=Nc2ccc(-c3noc(C(F)(F)F)n3)cc2)CCCCC1 [Compound 134, 1-((4-(5-(trifluoromethyl)-1,2,4-oxadiazol-3-yl)phenyl)imino)hexahydro-1λ^6-thiopyran 1-oxide]
inhibition of growth at 300 ppm (Pyricularia oryzae): > 70%
control compared to the untreated check (Septoria lycopersici): more than 70%

COc1ccc(S(C)(=O)=NCc2ccc(-c3noc(C(F)(F)F)n3)cc2)cc1 (centres unmarked) [Compound 23, (4-methoxyphenyl)(methyl)((4-(5-(trifluoromethyl)-1,2,4-oxadiazol-3-yl)benzyl)imino)-λ^6-sulfanone]
pest or weed control at 500 ppm (Phakopsora pachyrhizi): > 90%
inhibition of growth at 300 ppm (Colletotrichum capsici): > 70%
inhibition of growth at 300 ppm (Botrytis cinerea): > 70%
inhibition of growth at 300 ppm (Alternaria solani): > 70%
inhibition of growth at 300 ppm (Pyricularia oryzae): > 70%

O=C(NS(=O)(=O)c1ccc(Cl)cc1Cl)c1ccc(-c2noc(C(F)(F)F)n2)cc1 [Compound 156, N-((2,4-dichlorophenyl)sulfonyl)-4-(5-(trifluoromethyl)-1,2,4-oxadiazol-3-yl)benzamide]
inhibition of growth at 300 ppm (Colletotrichum capsici): > 70%
inhibition of growth at 300 ppm (Botrytis cinerea): > 70%

CS(=O)(=Nc1ccc(-c2noc(C(F)(F)F)n2)nc1)c1ccccc1 (centres unmarked) [Compound 109, methyl(phenyl)((6-(5-(trifluoromethyl)-1,2,4-oxadiazol-3-yl)pyridin-3-yl)imino)-λ^6-sulfanone]
pest or weed control at 500 ppm (Phakopsora pachyrhizi): > 90%
inhibition of growth at 300 ppm (Botrytis cinerea): > 70%
inhibition of growth at 300 ppm (Alternaria solani): > 70%

CS(=O)(=Nc1ccc(-c2noc(C(F)(F)F)n2)cc1)c1ccccc1 (centres unmarked) [Compound 18, methyl(phenyl)((4-(5-(trifluoromethyl)-1,2,4-oxadiazol-3-yl)phenyl)imino)-λ^6-sulfanone]
pest or weed control at 500 ppm (Phakopsora pachyrhizi): > 90%
inhibition of growth at 300 ppm (Colletotrichum capsici): > 70%
inhibition of growth at 300 ppm (Alternaria solani): > 70%
inhibition of growth at 300 ppm (Pyricularia oryzae): > 70%

CS(=O)(=Nc1ccc(-c2noc(C(F)(F)F)n2)cc1)c1ccc(F)cc1 (centres unmarked) [Compound 17, (4-fluorophenyl)(methyl)((4-(5-(trifluoromethyl)-1,2,4-oxadiazol-3-yl)phenyl)imino)-λ^6-sulfanone]
pest or weed control at 500 ppm (Phakopsora pachyrhizi): > 90%
inhibition of growth at 300 ppm (Colletotrichum capsici): > 70%
inhibition of growth at 300 ppm (Botrytis cinerea): > 70%
inhibition of growth at 300 ppm (Alternaria solani): > 70%
inhibition of growth at 300 ppm (Pyricularia oryzae): > 70%

COc1ccc(S(C)(=O)=Nc2ccc(-c3noc(C(F)(F)F)n3)nc2)cc1 (centres unmarked) [Compound 108, (4-methoxyphenyl)(methyl)((6-(5-(trifluoromethyl)-1,2,4-oxadiazol-3-yl)pyridin-3-yl)imino)-λ^6-sulfanone]
pest or weed control at 500 ppm (Phakopsora pachyrhizi): > 90%
inhibition of growth at 300 ppm (Botrytis cinerea): > 70%
inhibition of growth at 300 ppm (Alternaria solani): > 70%

CS(=O)(=Nc1ccc(-c2noc(C(F)(F)F)n2)cc1)c1ccc(Cl)cc1 (centres unmarked) [Compound 13, (4-chlorophenyl)(methyl)((4-(5-(trifluoromethyl)-1,2,4-oxadiazol-3-yl)phenyl)imino)-λ^6-sulfanone]
inhibition of growth at 300 ppm (Colletotrichum capsici): > 70%
inhibition of growth at 300 ppm (Alternaria solani): > 70%
inhibition of growth at 300 ppm (Pyricularia oryzae): > 70%

CS(=O)(=NC(=O)C1CC1)c1ccc(-c2noc(C(F)(F)F)n2)cc1 (centres unmarked) [Compound 181, N-(methyl(oxo)(4-(5-(trifluoromethyl)-1,2,4-oxadiazol-3-yl)phenyl)-λ^6-sulfaneylidene)cyclopropanecarboxamide]
inhibition of growth at 300 ppm (Colletotrichum capsici): > 70%
inhibition of growth at 300 ppm (Pyricularia oryzae): > 70%

O=S1(=Nc2ccc(-c3noc(C(F)(F)F)n3)cc2)CCOCC1 [Compound 133, 4-((4-(5-(trifluoromethyl)-1,2,4-oxadiazol-3-yl)phenyl)imino)-1,4λ^6-oxathiane 4-oxide]
inhibition of growth at 300 ppm (Colletotrichum capsici): > 70%
inhibition of growth at 300 ppm (Botrytis cinerea): > 70%
inhibition of growth at 300 ppm (Pyricularia oryzae): > 70%

CS(=O)(=Nc1ccc(-c2noc(C(F)(F)F)n2)cc1)c1cccc(F)c1 (centres unmarked) [Compound 14, (3-fluorophenyl)(methyl)((4-(5-(trifluoromethyl)-1,2,4-oxadiazol-3-yl)phenyl)imino)-λ^6-sulfanone]
pest or weed control at 500 ppm (Phakopsora pachyrhizi): > 90%
inhibition of growth at 300 ppm (Botrytis cinerea): > 70%
inhibition of growth at 300 ppm (Alternaria solani): > 70%
inhibition of growth at 300 ppm (Pyricularia oryzae): > 70%

CS(=O)(=Nc1ccc(-c2noc(C(F)(F)F)n2)cc1)c1ccncc1 (centres unmarked) [Compound 15, methyl(pyridin-4-yl)((4-(5-(trifluoromethyl)-1,2,4-oxadiazol-3-yl)phenyl)imino)-λ^6-sulfanone]
pest or weed control at 500 ppm (Phakopsora pachyrhizi): > 90%
inhibition of growth at 300 ppm (Colletotrichum capsici): > 70%
inhibition of growth at 300 ppm (Botrytis cinerea): > 70%
inhibition of growth at 300 ppm (Alternaria solani): > 70%
inhibition of growth at 300 ppm (Pyricularia oryzae): > 70%
